Laboratory results: patent US11897898B2, “Pyridine macrocycle compounds as ASK1 inhibiting agents” (BIOGEN MA INC., priority 2018, dated 2024)

Key:
[1] = target: T1, ASK1/MAP3K5 (Homo sapiens, UniProt Q99683); test: ASK1 enzyme assay (ASK1/MAP3K5 assay by Reaction Biology Corp., 33P-ATP filter-binding); format: biochemical; settings: 20 μM myelin basic protein and 10 μM ATP; class symbols
T1 construct: purchased Reaction Biology Corp. (Malvern, Pa.)
T1 sequence (Q99683 1-1374): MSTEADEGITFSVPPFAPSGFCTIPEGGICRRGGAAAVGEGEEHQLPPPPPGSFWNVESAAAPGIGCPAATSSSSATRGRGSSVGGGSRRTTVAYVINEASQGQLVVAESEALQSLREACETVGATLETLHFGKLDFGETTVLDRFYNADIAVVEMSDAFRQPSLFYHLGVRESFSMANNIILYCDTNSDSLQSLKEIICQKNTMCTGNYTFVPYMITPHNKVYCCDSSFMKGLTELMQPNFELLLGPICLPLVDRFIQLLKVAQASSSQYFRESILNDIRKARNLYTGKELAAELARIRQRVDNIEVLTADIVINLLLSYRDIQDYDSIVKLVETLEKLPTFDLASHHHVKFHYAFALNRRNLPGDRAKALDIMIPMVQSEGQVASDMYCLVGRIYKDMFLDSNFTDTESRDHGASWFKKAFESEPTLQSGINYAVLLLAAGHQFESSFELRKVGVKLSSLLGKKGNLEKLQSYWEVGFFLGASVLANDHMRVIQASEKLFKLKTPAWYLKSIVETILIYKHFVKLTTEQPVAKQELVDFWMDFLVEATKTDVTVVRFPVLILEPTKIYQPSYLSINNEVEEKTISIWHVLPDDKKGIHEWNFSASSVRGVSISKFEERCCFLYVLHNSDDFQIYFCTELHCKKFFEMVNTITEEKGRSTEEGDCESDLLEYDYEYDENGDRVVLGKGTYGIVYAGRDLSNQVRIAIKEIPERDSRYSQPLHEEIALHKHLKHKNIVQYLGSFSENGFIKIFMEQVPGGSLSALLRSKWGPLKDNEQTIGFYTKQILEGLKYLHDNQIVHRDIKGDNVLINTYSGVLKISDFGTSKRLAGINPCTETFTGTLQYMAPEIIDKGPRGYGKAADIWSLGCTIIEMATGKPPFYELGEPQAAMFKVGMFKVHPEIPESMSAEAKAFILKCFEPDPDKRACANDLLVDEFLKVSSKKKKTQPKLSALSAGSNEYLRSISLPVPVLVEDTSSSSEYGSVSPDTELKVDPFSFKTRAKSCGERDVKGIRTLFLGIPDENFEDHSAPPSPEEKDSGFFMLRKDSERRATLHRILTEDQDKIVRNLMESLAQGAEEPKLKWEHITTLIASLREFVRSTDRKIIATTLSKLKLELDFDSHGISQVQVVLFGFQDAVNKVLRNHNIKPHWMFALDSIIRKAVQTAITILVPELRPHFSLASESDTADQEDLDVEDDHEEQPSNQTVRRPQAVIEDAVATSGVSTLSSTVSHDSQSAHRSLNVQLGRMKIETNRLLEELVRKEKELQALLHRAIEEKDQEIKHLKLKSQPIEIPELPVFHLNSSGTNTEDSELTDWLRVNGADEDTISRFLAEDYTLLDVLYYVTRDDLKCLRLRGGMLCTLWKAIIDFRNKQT
Procedure: The protein kinase inhibitory activity of the compounds described herein were tested using the ASK1/MAP3K5 assay by Reaction Biology Corp. (Malvern, Pa.). The assay procedure follows (and is also available on the Reaction Biology Corp. website). • Base Reaction Buffer: 20 mM Hepes (pH 7.5), 10 mM MgCl2, 1 mM EGTA, • 0.02% Brij35, 0.02 mg/mL BSA, 0.1 mM Na3VO4, 2 mM DTT, 1% DMSO; • Substrate: 20 μM of myelin basic protein (MBP) and 10 μM ATP; • Protein kinase: ASK1/MAP3K5. • Reaction Procedure: • 1. Prepare indicated substrate in freshly prepared Base Reaction Buffer. • 2. Deliver any required cofactors to the substrate solution. • 3. Deliver indicated kinase into the substrate solution and gently mix. • 4. Deliver compounds in DMSO into the kinase reaction mixture by Acoustic; technology (Echo550; nanoliter range), incubate for 20 minutes at room temperature. • 5. Deliver ^33P-ATP (specific activity 10 μCi/μL) into the reaction mixture to initiate the reaction. • 6. Incubate kinase reaction for 2 hours at room temperature. • 7. Reactions are spotted onto P81 ion exchange paper. • 8. Detect kinase activity by filter-binding method.

[2] = target: T2, ASK1 T838 auto phosphorylation (Homo sapiens, UniProt Q99683); test: ASK1 (AUTO PHOS T838) assay in HEK-293T cells, MSD format; format: cell-based; settings: HEK-293T cells transfected with ASK1-V5, 1 hr compound incubation; class symbols
T2 construct: ASK1-V5 tagged full length plasmid; expressed in transfected cells; host or cells: HEK-293T
T2 sequence (Q99683 1-1374): T1 sequence (Q99683 1-1374)
Procedure: ASK1 T838 auto phosphorylation was measured in HEK-293T cells using MSD assay format. HEK 293T cells were seeded in 15 cm plates at a density of 18 million cells and 20 mL DMEM with 10% FBS, Pen/Strep media. The plates were incubated at 37° C. overnight. Media on plates was changed to OPTI-MEM, serum free media and cells were transfected with 9 μg of ASK1-V5 tagged full length plasmid using Lipofectamine 2000 (Invitrogen) and the plates were incubated at 37° C. overnight. Cells were trypsinized, counted on Nexcellometer and plated into 96 well tissue culture plates with 100,000 cells/well and 200 μL media. Cells were incubated for 4 hr at 37° C. then ASK1 compounds were added using a HP 300e. Compounds were tested at 20 μM with 3 fold, 10 point dilution points then incubated for 1 hr at 37° C. A lysis buffer (Cell Signaling) was prepared with protease and phosphatase inhibitor and maintained at 4° C. until use. Media from cells was discarded and 120 μL of cold lysis buffer was added to the cells, the plate was shaken 4° C. for 1 hr. Lysate was mixed using Apricot liquid handler; aspirating up and down 16 times at high speed using 50 μL volume. 50 μL of cell lysates were transferred to a pre-coated MSD plates containing mouse anti-V5 antibody (1:500 dilution) and washed 3× with MSD wash buffer (TBST) and blocked with a 3% BSA solution. Plates were then incubated on a plate shaker overnight at 4° C. Plates were washed 3× with MSD wash buffer and 50 μL of rabbit anti-pASK1 T838 antibody was added to the wells and incubated for 2 hr at room temperature on a plate shaker. Plates were then washed and 50 μL of goat anti-rabbit sulfa-tag (1:500 dilution) was added to wells, and incubated for 1 hr at room temperature on a plate shaker. Plates were washed 3× and 150 μL of 2×MSD Read buffer was added to wells. Plates were immediately read on a MSD Instrument Reader where chemoluminecense signal was measured. Data was analyzed using Graph Pad or Genedata, the data was normalized and plotted, % activity versus log of compound concentration. The IC50 values were obtained from a 4 parameter fit.

IC50 [1] | IC50 [2] | Compound
≤ 100 nM | ≤ 100 nM | COc1ccc(-c2cnc3c(c2)C(=O)Nc2cccc(n2)-c2nncn2[C@@H](C)CCCO3)cn1 [Compound 20, (S)-5^5-(6-Methoxypyridin-3-yl)-10-methyl-1^4H-6-oxa-3-aza-2(2,6),5(3,2)-dipyridina-1(3,4)-triazolacyclodecaphan-4-one]
≤ 100 nM | ≤ 100 nM | C[C@H]1CCCOc2ncc(N3CC(F)(F)C3)cc2C(=O)Nc2cccc(n2)-c2nncn21 [Compound 9, (S)-5^5-(3,3-Difluoroazetidin-1-yl)-10-methyl-1^4H-6-oxa-3-aza-2(2,6),5(3,2)-dipyridina-1(3,4)-triazolacyclodecaphan-4-one]
– | ≤ 100 nM | C[C@H]1CCCOc2ncc(C3CCN(C)CC3)cc2C(=O)Nc2cccc(n2)-c2nncn21 [Compound 16, (S)-10-Methyl-5^5-(1-methylpiperidin-4-yl)-1^4H-6-oxa-3-aza-2(2,6),5(3,2)-dipyridina-1(3,4)-triazolacyclodecaphan-4-one]
≤ 100 nM | ≤ 100 nM | C[C@@H]1CN(c2cnc3c(c2)C(=O)Nc2cccc(n2)-c2nncn2[C@@H](C)CCCO3)C[C@H](C)N1 [Compound 11, (S)-5^5-((3S,5R)-3,5-Dimethylpiperazin-1-yl)-10-methyl-1^4H-6-oxa-3-aza-2(2,6),5(3,2)-dipyridina-1(3,4)-triazolacyclodecaphan-4-one]
– | 1000 to 10000 nM | C[C@@H]1CCCOc2ncc(-c3ccncc3)cc2C(=O)Nc2cccc(n2)-c2nncn21 [Compound 18, (R)-10-Methyl-5^5-(pyridin-4-yl)-1^4H-6-oxa-3-aza-2(2,6),5(3,2)-dipyridina-1(3,4)-triazolacyclodecaphan-4-one]
≤ 100 nM | ≤ 100 nM | C[C@H]1CCCOc2ncc(-c3ccnnc3)cc2C(=O)Nc2cccc(n2)-c2nncn21 [Compound 23, (S)-10-Methyl-5^5-(pyridazin-4-yl)-1^4H-6-oxa-3-aza-2(2,6),5(3,2)-dipyridina-1(3,4)-triazolacyclodecaphan-4-one]
≤ 100 nM | 100 to 1000 nM | C[C@@H]1CN(c2cnc3c(c2)C(=O)Nc2cccc(n2)-c2nncn2[C@@H](C)CCCO3)C[C@@H](C)N1 [Compound 14, (S)-5^5-((3R,5R)-3,5-Dimethylpiperazin-1-yl)-10-methyl-1^4H-6-oxa-3-aza-2(2,6),5(3,2)-dipyridina-1(3,4)-triazolacyclodecaphan-4-one]
≤ 100 nM | 100 to 1000 nM | COC(C)(C)c1cnc2c(c1)C(=O)Nc1cccc(n1)-c1nncn1[C@@H](C)CCCO2 [Compound 40, (S)-5^5-(2-Methoxypropan-2-yl)-10-methyl-1^4H-6-oxa-3-aza-2(2,6),5(3,2)-dipyridina-1(3,4)-triazolacyclodecaphan-4-one]
≤ 100 nM | 100 to 1000 nM | CC1CCCOc2ncccc2C(=O)Nc2cccc(n2)-c2nncn21 (stereo not shown) [Compound 3, 10-Methyl-1^4H-6-oxa-3-aza-2(2,6),5(3,2)-dipyridina-1(3,4)-triazolacyclodecaphan-4-one]
– | 100 to 1000 nM | C[C@H]1CCCOc2ncc(C#CC3CC3)cc2C(=O)Nc2cccc(n2)-c2nncn21 [Compound 35, (S)-5^5-(Cyclopropylethynyl)-10-methyl-1^4H-6-oxa-3-aza-2(2,6),5(3,2)-dipyridina-1(3,4)-triazolacyclodecaphan-4-one]
– | 100 to 1000 nM | Cc1cnn(-c2cnc3c(c2)C(=O)Nc2cccc(n2)-c2nncn2[C@@H](C)CCCO3)c1 [Compound 27, (S)-10-Methyl-5^5-(4-methyl-1H-pyrazol-1-yl)-1^4H-6-oxa-3-aza-2(2,6),5(3,2)-dipyridina-1(3,4)-triazolacyclodecaphan-4-one]
– | 100 to 1000 nM | C[C@H]1CCCOc2ncc(-n3ccc(C(F)(F)F)n3)cc2C(=O)Nc2cccc(n2)-c2nncn21 [Compound 29, (S)-10-Methyl-5^5-(3-(trifluoromethyl)-1H-pyrazol-1-yl)-1^4H-6-oxa-3-aza-2(2,6),5(3,2)-dipyridina-1(3,4)-triazolacyclodecaphan-4-one]
– | 1000 to 10000 nM | C[C@@H]1CCCOc2ncc(N3CCOCC3)cc2C(=O)Nc2cccc(n2)-c2nncn21 [Compound 6, (R)-10-Methyl-5^5-morpholino-1^4H-6-oxa-3-aza-2(2,6),5(3,2)-dipyridina-1(3,4)-triazolacyclodecaphan-4-one]
– | 100 to 1000 nM | C#Cc1cnc2c(c1)C(=O)Nc1cccc(n1)-c1nncn1[C@@H](C)CCCO2 [Compound 34, (S)-5^5-Ethynyl-10-methyl-1^4H-6-oxa-3-aza-2(2,6),5(3,2)-dipyridina-1(3,4)-triazolacyclodecaphan-4-one]
≤ 100 nM | – | C[C@H]1CCCOc2ncc(-c3cncnc3)cc2C(=O)Nc2cccc(n2)-c2nncn21 [Compound 21, (S)-10-Methyl-5^5-(pyrimidin-5-yl)-1^4H-6-oxa-3-aza-2(2,6),5(3,2)-dipyridina-1(3,4)-triazolacyclodecaphan-4-one]
– | ≤ 100 nM | C[C@H]1CCCOc2ncc(-c3cnn(C)c3)cc2C(=O)Nc2cccc(n2)-c2nncn21 [Compound 26, (S)-10-Methyl-5^5-(1-methyl-1H-pyrazol-4-yl)-1^4H-6-oxa-3-aza-2(2,6),5(3,2)-dipyridina-1(3,4)-triazolacyclodecaphan-4-one]
– | 100 to 1000 nM | C[C@H]1CCCOc2ncc(C3CC3)cc2C(=O)Nc2cccc(n2)-c2nncn21 [Compound 36, (S)-5^5-Cyclopropyl-10-methyl-1^4H-6-oxa-3-aza-2(2,6),5(3,2)-dipyridina-1(3,4)-triazolacyclodecaphan-4-one]
– | 100 to 1000 nM | C[C@H]1CCCOc2ncc(S(C)(=O)=O)cc2C(=O)Nc2cccc(n2)-c2nncn21 [Compound 43, (S)-10-Methyl-5^5-(methylsulfonyl)-1^4H-6-oxa-3-aza-2(2,6),5(3,2)-dipyridina-1(3,4)-triazolacyclodecaphan-4-one]
